Drawing on the supplement of paper PMC11003180, this text covers drug sensitivity score for 16 compounds.

Common to all, as to assay: drug sensitivity score (DSS) from 5-dose viability curve (DSS (area-based score, 0 = no response)); higher = more sensitive (stronger viability inhibition); extreme values may be limits of the assay
The test system of assay [1] is MDCK wild-type - doxycycline. To be noted: doxycycline: none; 72 h. The gist of the method:
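For 72 h at 37 °C, parental MDCK cells (no doxycycline, 2000 cells/well) were incubated on 384-well plates pre-spotted with 528 oncology drugs at five doses from 1 to 10,000 nM. CellTiter-Glo luminescence served as the viability readout, scaled per plate between vehicle and positive controls. The Breeze pipeline then fitted dose-response curves to yield drug sensitivity scores.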

The test system of assay [2] is MDCK p60AmotL2-inducible + doxycycline (p60AmotL2 expressing). To be noted: doxycycline: 10 ng/mL; 72 h. The method, boiled down:
(§1)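 After 72 h at 37 °C on 384-well plates pre-spotted with 528 oncology drugs at five doses (1-10,000 nM), parental and doxycycline-inducible MDCK cells were assessed; both lines had been given 10 ng/mL doxycycline in the medium before seeding at 2000 cells/well. Viability was taken from CellTiter-Glo luminescence scaled per plate to vehicle and positive controls, and drug sensitivity scores were derived from dose-response fits in the Breeze pipeline.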

In assay [3] the test system is MDCK wild-type + doxycycline. To be noted: doxycycline: 10 ng/mL; 72 h. The method, boiled down: as §1

With `Nc1nc(NC2CC2)cc(-c2cccc(Cl)c2Cl)n1` [TH588], the drug sensitivity score in assay [1], in assay [2] and in assay [3] was 0 each time.
`Clc1ccccc1C(c1ccccc1)(c1ccccc1)n1cccn1` [TRAM-34]: the drug sensitivity score in assay [1], in assay [2] and in assay [3] was 0 in each case.
`CC(=O)Nc1ccc(C(=O)Nc2ccccc2N)cc1` [Tacedinaline]: the drug sensitivity score in assay [1], in assay [2] and in assay [3] was 0 in each case.
Turning to `C=CC[C@@H]1/C=C(\C)C[C@H](C)C[C@H](OC)[C@H]2O[C@@](O)(C(=O)C(=O)N3CCCC[C@H]3C(=O)O[C@H](/C(C)=C/[C@@H]3CC[C@@H](O)[C@H](OC)C3)[C@H](C)[C@@H](O)CC1=O)[C@H](C)C[C@@H]2OC` [Tacrolimus], the drug sensitivity score in assay [1], in assay [2] and in assay [3] was 0 each time.
As to `CN(C(=O)c1ccc(F)cc1C(F)(F)F)C1CCN(c2nnc(-c3ccnn3C)c3ccccc23)CC1` [Taladegib], the drug sensitivity score in assay [1], in assay [2] and in assay [3] was 0 throughout.
Take `Cn1ncnc1[C@H]1c2n[nH]c(=O)c3cc(F)cc(c23)N[C@@H]1c1ccc(F)cc1` [Talazoparib]: the values for the drug sensitivity score in assay [1], in assay [2] and in assay [3] were 0, 2.3 and 0, respectively.
Take `C[C@@H]1CN(Cc2ccc(F)cc2)[C@@H](C)CN1C(=O)c1cc2c(C(=O)C(=O)N(C)C)cn(C)c2cc1Cl` [Talmapimod]: the drug sensitivity score in assay [1], in assay [2] and in assay [3] was 0 in each case.
With `COc1cc(Nc2ncc(F)c(Nc3ccc4c(n3)NC(=O)C(C)(C)O4)n2)cc(OC)c1OC` [Tamatinib], the drug sensitivity score in assay [1] was found to be 0; in assay [2], 1.6; in assay [3] it was 0.
On to `CC/C(=C(\c1ccccc1)c1ccc(OCCN(C)C)cc1)c1ccccc1` [Tamoxifen], for which the results for the drug sensitivity score in assay [1], in assay [2] and in assay [3] were 0, 1 and 0, respectively.
As to `COc1cc2c(N3CCN(C(=O)Nc4ccc(OC(C)C)cc4)CC3)ncnc2cc1OCCCN1CCCCC1` [Tandutinib], the drug sensitivity score in assay [1], in assay [2] and in assay [3] was 0 throughout.
Consider `O[C@H]1CC[C@H](Nc2ncc3nc(Nc4c(F)cc(F)cc4F)n([C@H]4CCOC4)c3n2)CC1` [Tanzisertib], for which the drug sensitivity score in assay [1] was determined as 0; in assay [2], 0.9; in assay [3], 0.1.
As for `C[C@@H](C(=O)O)c1ccc(-c2ccccc2)c(F)c1` [Tarenflurbil], the drug sensitivity score in assay [1], in assay [2] and in assay [3] was 0 in each case.
Consider `Cc1nc(-c2cn3c(n2)-c2ccc(-c4cnn(C(C)(C)C(N)=O)c4)cc2OCC3)n(C(C)C)n1` [Taselisib], for which the drug sensitivity score in assay [1] was determined as 0; in assay [2], 6.3; in assay [3] it was 0.3.
For `COc1cccc2c1c(O)c(C(=O)N(C)c1ccc(C(F)(F)F)cc1)c(=O)n2C` [Tasquinimod] the same measures were 0, 0 and 0.
Regarding `CCN(c1cc(-c2ccc(CN3CCOCC3)cc2)cc(C(=O)NCc2c(C)cc(C)[nH]c2=O)c1C)C1CCOCC1` [Tazemetostat], the drug sensitivity score in assay [1] is 0; in assay [2], 2.1; in assay [3], 0.
In the case of `CNC(=O)c1cc(COc2nnc(Nc3ccc(Cl)cc3)c3ccoc23)ccn1` [Telatinib], the drug sensitivity score in assay [1], in assay [2] and in assay [3] was 0 throughout.
